Numbers after ± are expanded uncertainties.

The conditions of this data set: Crystal; Adiabatic calorimetry.

Regarding `CCC` [propane], the Triple point temperature stood at 85.53 ± 0.039 K.

The values above are taken from the NIST ThermoML archive (doi:10.1021/je900137r).
